Here are results for two molecules from patent US7053090B2, “Triazaspiro[5.5]undecane derivatives and drugs containing the same as the active ingredient” (Ono Pharmaceutical Co., Ltd., priority 2001, dated 2006).

For the assay, the target named is T1, human CCR5 (Homo sapiens, UniProt P51681).
T1 construct: expressed in transfected cells; host or cells: CHO-dhfr(-) cells stably transfected with pEF-BOS-bsr/hCCR5
The assay can be described thus: Inhibition test on the binding of RANTES to CCR5 (RANTES-induced transient increase of Ca ion). Format: cell-based. Conditions: human CCR5 stably over-expressing CHO cell; recombinant human RANTES 10 nM; intracellular Ca2+ transient increase. Here is the method: (1) Isolation of Human CCR5 Gene
Human placental cDNA was prepared using Marathon cDNA amplification kit (Clontech). PCR primers hCCR5Xbal-F1: 5′-[…]-3′ (SEQ ID NO:1) and hCCR5Xbal-R1: 5′-[…]-3′ (SEQ ID NO:2) were designed based on the sequence of GenBank U54994.
Using the human placental cDNA as the template and using Ex Taq (Takara), PCR reaction (2 minutes at 95° C.→(30 seconds at 95° C., 45 seconds at 60° C., 1 minute at 72° C.)×35 times) was carried out. The thus amplified PCR product was subjected to a 1% agarose gel electrophoresis, purified using QIAquick Gel Extraction Kit (QUIAGEN) and then digested with a restriction enzyme Xbal. The digested fragments were ligated to an expression vector pEF-BOS-bsr using DNA Ligation Kit Ver. […]
The thus established human CCR5 stably over-expressing CHO cell (CCR5/CHO cell) was suspended in Ham's F-12 medium containing FBS (10%) and dispensed in […] portions into a 96 well plate. […] Transient increase in the intracellular Ca^2+ concentration induced by the human RANTES was measured using a Ca^2+ detector for 96 well use (Hamamatsu Photonics), and inhibition ratio (%) of the test compound was calculated by the following calculation formula. Inhibition ratio=(Ec−Ea)/Ec×100 • Ec: measured value of Ca^2+ transient increase by RANTES • Ea: measured value of Ca^2+ transient increase by RANTES when a test compound was added.

Structures are written as SMILES. pIC50: −log10 of the molar value. Counter-ions that a name gives are not always drawn.

T1 sequence (P51681 whole entry): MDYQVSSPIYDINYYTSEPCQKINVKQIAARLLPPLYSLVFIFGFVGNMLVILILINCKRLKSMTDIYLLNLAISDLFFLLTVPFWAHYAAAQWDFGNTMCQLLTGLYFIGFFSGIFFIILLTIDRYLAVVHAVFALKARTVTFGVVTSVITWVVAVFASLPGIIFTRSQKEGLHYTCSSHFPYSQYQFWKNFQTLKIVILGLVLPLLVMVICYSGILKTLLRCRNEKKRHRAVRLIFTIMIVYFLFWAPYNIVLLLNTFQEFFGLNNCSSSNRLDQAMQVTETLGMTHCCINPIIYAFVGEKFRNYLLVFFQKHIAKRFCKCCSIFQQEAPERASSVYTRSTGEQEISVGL

As usually defined, the pIC50 is the IC50 on a negative log10 scale, so that one unit is a factor of ten. For the molecule `CCCCN1C(=O)[C@@H]([C@H](O)C(C)C)NC(=O)C12CCN(Cc1ccc(Oc3ccccc3)nc1)CC2` [Example 2, (3R)-1-butyl-2,5-dioxo-3-((1R)-1-hydroxy-2-methylpropyl)-9-(6-phenyloxypyridin-3-ylmethyl)-1,4,9-triazaspiro[5.5]undecane.2hydrochloride], the pIC50 is 7.57. With `CCCCN1C(=O)[C@H]([C@@H](O)C(C)C)NC(=O)C12CCN(Cc1ccc(Oc3ccccc3)nc1)CC2` [Example 3, (3S)-1-butyl-2,5-dioxo-3-((1S)-1-hydroxy-2-methylpropyl)-9-(6-phenyloxypyridin-3-ylmethyl)-1,4,9-triazaspiro[5.5]undecane.2hydrochloride] the figure was 6.43.
